In brackets after ≈: the same amount, converted by molar mass.
How the values were obtained:
[1] = Cytotoxicity against African green monkey Vero cells infected with Herpes simplex virus 1 after 72 hrs by MTT assay; type: cell-based; details: chlorocebus sabaeus, read-out: TC50
Human alphaherpesvirus 1 = test: Antiviral activity against Herpes simplex virus 1 infected in African green monkey Vero cells assessed as inhibition of virus-induced cytopathogenic effect by microscopic analysis; type: functional, organism-based; details: Human alphaherpesvirus 1, Vero
[2] = (§1) Selectivity index, ratio of TC50 against African green monkey Vero cells infected with Herpes simplex virus 1 after 72 hrs by MTT assay to IC50 against Herpes simplex virus 1 infected in African green monkey Vero cells assessed as inhibition of virus-induced cytopathogenic effect by microscopic analysis; type: toxicity; details: read-out: Selectivity Index
Influenza A virus H3N2 = test: Antiviral activity against Influenza A virus H3N2 infected in African green monkey Vero cells assessed as inhibition of virus-induced cytopathogenic effect by microscopic analysis; type: functional, organism-based
[3] = Selectivity index, ratio of TC50 against African green monkey Vero cells infected with Human papillomavirus after 72 hrs by MTT assay to IC50 against Human papillomavirus infected in African green monkey Vero cells assessed as inhibition of virus-induced cytopathogenic effect by microscopic analysis; type: toxicity; details: read-out: Selectivity Index
[4] = Selectivity index, ratio of TC50 against African green monkey Vero cells infected with Hepatitis C virus after 72 hrs by MTT assay to IC50 against Hepatitis C virus infected in African green monkey Vero cells assessed as inhibition of virus-induced cytopathogenic effect by microscopic analysis; type: toxicity; details: read-out: Selectivity Index
[5] = Cytotoxicity against African green monkey Vero cells infected with Herpes simplex virus 2 after 72 hrs by MTT assay; type: cell-based; details: chlorocebus sabaeus, read-out: TC50
[6] = Selectivity index, ratio of TC50 against African green monkey Vero cells infected with Influenza A virus H3N2 after 72 hrs by MTT assay to IC50 against Influenza A virus H3N2 infected in African green monkey Vero cells assessed as inhibition of virus-induced cytopathogenic effect by microscopic analysis; type: toxicity; details: read-out: Selectivity Index
Human alphaherpesvirus 2 = test: Antiviral activity against Herpes simplex virus 2 infected in African green monkey Vero cells assessed as inhibition of virus-induced cytopathogenic effect by microscopic analysis; type: functional, organism-based; details: Human alphaherpesvirus 2, Vero
[7] = Selectivity index, ratio of TC50 against African green monkey Vero cells infected with Hepatitis B virus after 72 hrs by MTT assay to IC50 against Hepatitis B virus infected in African green monkey Vero cells assessed as inhibition of virus-induced cytopathogenic effect by microscopic analysis; type: toxicity; details: read-out: Selectivity Index
[8] = as §1, with “2” for “1”; type: toxicity; details: read-out: Selectivity Index
Coxsackievirus B3 = test: Antiviral activity against Coxsackievirus B3 infected in African green monkey Vero cells assessed as inhibition of virus-induced cytopathogenic effect by microscopic analysis; type: functional, organism-based; details: Enterovirus B
Hepatitis C virus = test: Antiviral activity against Hepatitis C virus infected in African green monkey Vero cells assessed as inhibition of virus-induced cytopathogenic effect by microscopic analysis; type: functional, organism-based, Hepacivirus hominis
[9] = Cytotoxicity against African green monkey Vero cells infected with Hepatitis B virus after 72 hrs by MTT assay; type: cell-based; details: chlorocebus sabaeus, read-out: TC50
[10] = Cytotoxicity against African green monkey Vero cells infected with Hepatitis C virus after 72 hrs by MTT assay; type: cell-based; details: chlorocebus sabaeus, read-out: TC50
[11] = Cytotoxicity against African green monkey Vero cells infected with Influenza A virus H3N2 after 72 hrs by MTT assay; type: cell-based; details: chlorocebus sabaeus, read-out: TC50
Human papillomavirus = test: Antiviral activity against Human papillomavirus infected in African green monkey Vero cells assessed as inhibition of virus-induced cytopathogenic effect by microscopic analysis; type: functional, organism-based
[12] = Cytotoxicity against African green monkey Vero cells infected with Coxsackievirus B3 after 72 hrs by MTT assay; type: cell-based; details: chlorocebus sabaeus, read-out: TC50
[13] = Cytotoxicity against African green monkey Vero cells infected with Human papillomavirus after 72 hrs by MTT assay; type: cell-based; details: chlorocebus sabaeus, read-out: TC50
[14] = Selectivity index, ratio of TC50 against African green monkey Vero cells infected with Coxsackievirus B3 after 72 hrs by MTT assay to IC50 against Coxsackievirus B3 infected in African green monkey Vero cells assessed as inhibition of virus-induced cytopathogenic effect by microscopic analysis; type: toxicity; details: read-out: Selectivity Index

Work on `COc1ccccc1CCCNc1ncnc(Cl)c1/C=N/O` yielded a CC50 at 72 h [1] of 1.29 µg/mL (≈ 4.02 µM) and an IC50 (Human alphaherpesvirus 1) greater than 0.19 µg/mL.

For `COc1ccccc1Nc1ncnc(Cl)c1/C=N/O`, the CC50 at 72 h [1] was 8.9 µg/mL (≈ 31.9 µM), the IC50 (Human alphaherpesvirus 1) was 1.43 µg/mL (≈ 5.13 µM) and the selectivity ratio at 72 h [2] was 6.22.

With `CO/N=C\c1c(Cl)ncnc1NCc1ccccc1OC` the CC50 at 72 h [1] was 80.1 µg/mL (≈ 261 µM), the IC50 (Human alphaherpesvirus 1) was 14.4 µg/mL (≈ 46.8 µM) and the selectivity ratio at 72 h [2] was 5.58.

`Nc1ncn([C@@H]2O[C@H](CO)[C@@H](O)[C@H]2O)c2nc(=O)[nH]c(=O)c1-2` gave a CC50 at 72 h [1] of 577 µg/mL (≈ 1850 µM), an IC50 (Human alphaherpesvirus 1) greater than 333 µg/mL and an IC50 (Influenza A virus H3N2) greater than 333 µg/mL.

With `CC(C)(C)c1ccc(CNc2ncnc(Cl)c2/C=N/O)cc1` the selectivity ratio at 72 h [3] was 1.75, the selectivity ratio at 72 h [4] was 17.8 and the CC50 at 72 h [1] was 0.26 µg/mL (≈ 0.816 µM). The CC50 at 72 h [5] was 0.53 µg/mL (≈ 1.66 µM), the selectivity ratio at 72 h [6] was 1.78 and the IC50 (Human alphaherpesvirus 2) was 0.04 µg/mL (≈ 0.125 µM). For the same molecule, the selectivity ratio at 72 h [7] was 17.9, the IC50 (Human alphaherpesvirus 1) was 0.05 µg/mL (≈ 0.157 µM) and the IC50 (Influenza A virus H3N2) was 0.27 µg/mL (≈ 0.847 µM). It also gave a selectivity ratio at 72 h [8] of 13.2, a selectivity ratio at 72 h [2] of 5.2 and an IC50 (Coxsackievirus B3) of 0.12 µg/mL (≈ 0.376 µM). The IC50 (Hepatitis C virus) was 1.15 µg/mL (≈ 3.61 µM), the CC50 at 72 h [9] was 0.0397 µg/mL (≈ 0.124 µM) and the CC50 at 72 h [10] was 19.3 µg/mL (≈ 60.5 µM). The CC50 at 72 h [11] was 0.48 µg/mL (≈ 1.51 µM), the IC50 (Human papillomavirus) was 5.6 µg/mL (≈ 17.6 µM) and the CC50 at 72 h [12] was 0.64 µg/mL (≈ 2.01 µM). The CC50 at 72 h [13] was 9.8 µg/mL (≈ 30.7 µM) and the selectivity ratio at 72 h [14] was 4.92.

In the case of `COc1ccccc1CCNc1ncnc(Cl)c1/C=N/O`, the CC50 at 72 h [1] was 80.1 µg/mL (≈ 261 µM), the IC50 (Human alphaherpesvirus 1) was 3.56 µg/mL (≈ 11.6 µM) and the selectivity ratio at 72 h [2] was 22.5.

`NC(=O)c1ncn([C@@H]2O[C@H](CO)[C@@H](O)[C@H]2O)n1` [RIBAVIRIN] gave a CC50 at 72 h [1] greater than 200 µg/mL, an IC50 (Human alphaherpesvirus 1) of 38.5 µg/mL (≈ 158 µM) and a selectivity ratio at 72 h [2] greater than 5.2.

`COc1ccc(Cn2c(=O)nc(N)c3c(OC)nc(N)nc32)cc1` showed a CC50 at 72 h [1] of 55.6 µg/mL (≈ 169 µM), a selectivity ratio at 72 h [6] of 3.3 and an IC50 (Human alphaherpesvirus 1) of 12.9 µg/mL (≈ 39.3 µM). The IC50 (Influenza A virus H3N2) was 18.5 µg/mL (≈ 56.4 µM) and the selectivity ratio at 72 h [2] was 4.3.

For `Nc1nc2c(c(N)nc(=O)n2[C@@H]2O[C@H](CO)[C@@H](O)[C@H]2O)c(=O)[nH]1`, the CC50 at 72 h [1] was 144 µg/mL (≈ 442 µM), the selectivity ratio at 72 h [6] was 13 and the IC50 (Human alphaherpesvirus 1) was greater than 83.3 µg/mL. It also gave an IC50 (Influenza A virus H3N2) of 9.26 µg/mL (≈ 28.4 µM).

In the case of `Nc1nc2c(c(N)nc(=O)n2[C@H]2C[C@H](O)[C@@H](CO)O2)c(=O)[nH]1`, the CC50 at 72 h [1] was 347 µg/mL (≈ 1120 µM), the IC50 (Human alphaherpesvirus 1) was greater than 167 µg/mL and the IC50 (Influenza A virus H3N2) was greater than 250 µg/mL.

Molecule `O/N=C/c1c(Cl)ncnc1NCc1ccc(Cl)cc1` has a CC50 at 72 h [1] of 3.18 µg/mL (≈ 10.7 µM), an IC50 (Human alphaherpesvirus 1) of 0.57 µg/mL (≈ 1.92 µM) and a selectivity ratio at 72 h [2] of 5.58.

Molecule `Nc1ncnc2c1c(=O)[nH]c(=O)n2[C@H]1O[C@@H](CO)[C@H](O)[C@@H]1O` has a CC50 at 72 h [1] of 40.5 µg/mL (≈ 130 µM), an IC50 (Human alphaherpesvirus 1) greater than 30.2 µg/mL and an IC50 (Influenza A virus H3N2) greater than 33.3 µg/mL.

For `Nc1ncn([C@@H]2O[C@H](CO)C[C@H]2O)c2nc(=O)[nH]c(=O)c1-2`, the CC50 at 72 h [1] was 347 µg/mL (≈ 1170 µM), the IC50 (Human alphaherpesvirus 1) was 75.9 µg/mL (≈ 257 µM) and the IC50 (Influenza A virus H3N2) was greater than 83.3 µg/mL. For the same molecule, the selectivity ratio at 72 h [2] was 4.6.

Molecule `COc1nc(N)nc2[nH]c(=O)nc(N)c12` has a CC50 at 72 h [1] of 48.1 µg/mL (≈ 231 µM), an IC50 (Human alphaherpesvirus 1) of 7.31 µg/mL (≈ 35.1 µM) and an IC50 (Influenza A virus H3N2) greater than 9.26 µg/mL. For the same molecule, the selectivity ratio at 72 h [2] was 6.6.

Work on `Nc1ccc(CNc2ncnc(Cl)c2/C=N/O)cc1` yielded a CC50 at 72 h [1] of 2.47 µg/mL (≈ 8.89 µM), an IC50 (Human alphaherpesvirus 1) of 0.47 µg/mL (≈ 1.69 µM) and a selectivity ratio at 72 h [2] of 5.26.

In the case of `O/N=C/c1c(Cl)ncnc1NCc1ccccc1`, the CC50 at 72 h [1] was 7.41 µg/mL (≈ 28.2 µM), the IC50 (Human alphaherpesvirus 1) was 1.92 µg/mL (≈ 7.31 µM) and the selectivity ratio at 72 h [2] was 3.86.

For `Nc1nc2[nH]c(=O)nc(N)c2c(=O)[nH]1`, the CC50 at 72 h [1] was 16 µg/mL (≈ 82.6 µM), the IC50 (Human alphaherpesvirus 1) was greater than 9.26 µg/mL and the IC50 (Influenza A virus H3N2) was 27.8 µg/mL (≈ 143 µM).

— ChEMBL document CHEMBL4340503, “Antiviral activities of Janus-type nucleosides and their related oxime-intermediates” (Bioorg Med Chem, 2019)
